Experimental data as given in patent US9493411B2 (AbbVie Inc., priority 2013, dated 2016).

Tests used:
[1] = biological target: T1, BRD4 (BDII_E352-M457) (Homo sapiens, UniProt O60885); experiment: TR-FRET bromodomain binding assay, BRD4 second bromodomain; details: His-tagged BD2, Alexa647-labeled probe 30 nM; Ki calculated from IC50
T1 construct: made in house
Description: (§1) A time-resolved fluorescence resonance energy transfer (TR-FRET) assay was used to determine the affinities of compounds of the Examples listed in Table 1 for each bromodomain of BRD4. His-tagged first (BD1: amino acids K57-E168) and second (BD2: amino acids E352-E168) bromodomains of BRD4 were expressed and purified. An Alexa647-labeled BET-inhibitor was used as the fluorescent probe in the assay.
(§2) Compound dilution series were prepared in DMSO via a 3-fold serial dilution from 2.5 mM to 42 nM. Compounds were then diluted 6:100 in assay buffer (20 mM Sodium Phosphate, pH 6.0, 50 mM NaCl, 1 mM Ethylenediaminetetraacetic acid disodium salt dihydrate, 0.01% Triton X-100, 1 mM DL-Dithiothreitol) to yield 3× working solutions. Six microliters (μL) of the working solution was then transferred to white, low-volume assay plates (Costar #3673). A 1.5× assay mixture containing His-tagged bromodomain, Europium-conjugated anti-His antibody (Invitrogen PV5596) and the Alexa-647-conjugated probe molecule was also prepared. Twelve μL of this solution were added to the assay plate to reach a final volume of 18 μL. The final concentration of 1× assay buffer contains 2% DMSO, 50 μM-0.85 nM compound, 8 nM His-tagged bromodomain, 1 nM Europium-conjugated anti-His-tag antibody and 100 nM or 30 nM probe (for BDI or BDII, respectively). After a one-hour incubation at room temperature, TR-FRET ratios were determined using an Envision multilabel plate reader (Ex 340, Em […]).
(§3) TR-FRET data were normalized to the means of 24 no-compound controls (“high”) and 8 controls containing 1 μM un-labeled probe (“low”). Percent inhibition was plotted as a function of compound concentration and the data were fit with the 4 parameter logistic equation to obtain IC50s. Inhibition constants (Ki) were calculated from the IC50s, probe Kd and probe concentration. Typical Z′ values were between 0.65 and 0.75. The minimum significant ratio was determined to evaluate assay reproducibility (Eastwood et al., (2006) J Biomol Screen, 11: 253-261). The MSR was determined to be 2.03 for BDI and 1.93 for BDII, and a moving MSR (last six run MSR overtime) for both BDI and BDII was typically <3.

[2] = biological target: T2, BRD4 (BDI_K57-E168) (Homo sapiens, UniProt O60885); experiment: TR-FRET bromodomain binding assay, BRD4 first bromodomain; details: His-tagged BD1, Alexa647-labeled probe 100 nM; Ki calculated from IC50
T2 construct: BD1: amino acids K57-E168; made in house
Description: as §1, §2, §3

SMILES | Ki [1] [µM] | Ki [2] [µM]
Cc1[nH]c(-c2ccccc2NS(=O)(=O)CC(F)(F)F)cc1C(N)=O [Example 86, 2-methyl-5-(2-{[(2,2,2-trifluoroethyl)sulfonyl]amino}phenyl)-1H-pyrrole-3-carboxamide] | 2.6 | 3.03
Cc1[nH]c(-c2ccccc2NCc2c(F)cccc2F)cc1C(N)=O [Example 22, 5-{2-[(2,6-difluorobenzyl)amino]phenyl}-2-methyl-1H-pyrrole-3-carboxamide] | 3.66 | 2.98
Cc1[nH]c(-c2ccccc2NC2CCNCC2)cc1C(N)=O [Example 65, 2-methyl-5-[2-(piperidin-4-ylamino)phenyl]-1H-pyrrole-3-carboxamide] | 12.2 | 0.634
Cc1[nH]c(-c2ccccc2NC2CN3CCC2CC3)cc1C(N)=O (stereo not shown) [Example 71, 5-[2-(1-azabicyclo[2.2.2]oct-3-ylamino)phenyl]-2-methyl-1H-pyrrole-3-carboxamide] |  | 0.628
Cc1[nH]c(-c2ccccc2NC2CCC2)cc1C(N)=O [Example 66, 5-[2-(cyclobutylamino)phenyl]-2-methyl-1H-pyrrole-3-carboxamide] | 6.15 | 1.76
Cc1[nH]c(-c2cccc3[nH]cnc23)cc1C(N)=O [Example 163, 5-(1H-benzimidazol-4-yl)-2-methyl-1H-pyrrole-3-carboxamide] | 2.81 | 0.912
COc1cc(CNc2ccccc2-c2cc(C(N)=O)c(C)[nH]2)cc(OC)c1OC [Example 16, 2-methyl-5-{2-[(3,4,5-trimethoxybenzyl)amino]phenyl}-1H-pyrrole-3-carboxamide] | 2.02 | 1.18
Cc1[nH]c(-c2ccccc2NC2CCCCCC2)cc1C(N)=O [Example 73, 5-[2-(cycloheptylamino)phenyl]-2-methyl-1H-pyrrole-3-carboxamide] | 3.83 | 0.862
Cc1[nH]c(-c2ccccc2NCc2ccc(Cl)c(Cl)c2)cc1C(N)=O [Example 33, 5-{2-[(3,4-dichlorobenzyl)amino]phenyl}-2-methyl-1H-pyrrole-3-carboxamide] | 13.1 | 9.63
Cc1cc(CNc2ccccc2-c2cc(C(N)=O)c(C)[nH]2)oc1C [Example 20, 5-(2-{[(4,5-dimethylfuran-2-yl)methyl]amino}phenyl)-2-methyl-1H-pyrrole-3-carboxamide] | 3.29 | 1.19
Cc1[nH]c(-c2ccccc2NC2CCNC2)cc1C(N)=O (stereo not shown) [Example 64, 2-methyl-5-[2-(pyrrolidin-3-ylamino)phenyl]-1H-pyrrole-3-carboxamide] |  | 1.04
COc1ccc(CN(CC2CCCC2)c2ccccc2-c2cc(C(N)=O)c(C)[nH]2)cc1 [Example 61, 5-{2-[(cyclopentylmethyl)(4-methoxybenzyl)amino]phenyl}-2-methyl-1H-pyrrole-3-carboxamide] |  | 8.28
CC(=O)n1cc(CN(CC2CCCC2)c2ccccc2-c2cc(C(N)=O)c(C)[nH]2)c2ccccc21 [Example 58, 5-(2-{[(1-acetyl-1H-indol-3-yl)methyl](cyclopentylmethyl)amino}phenyl)-2-methyl-1H-pyrrole-3-carboxamide] |  | 4.68
Cc1[nH]c(-c2ccccc2NS(=O)(=O)c2ccc(F)cc2F)cc1C(N)=O [Example 84, 5-(2-{[(2,4-difluorophenyl)sulfonyl]amino}-phenyl)-2-methyl-1H-pyrrole-3-carboxamide] |  | 10.6

More lines, now with the values ahead:

Ki [1] [µM] | Ki [2] [µM] | SMILES
 | 11.5 | Cc1[nH]c(-c2cccc(Oc3ccc4c(c3)OCO4)c2)cc1C(N)=O [Example 160, 5-[3-(1,3-benzodioxol-5-yloxy)phenyl]-2-methyl-1H-pyrrole-3-carboxamide]
0.351 | 0.122 | Cc1[nH]c(-c2ccccc2Oc2ccccc2)cc1C(N)=O [Example 89, 2-methyl-5-(2-phenoxyphenyl)-1H-pyrrole-3-carboxamide]
6.43 | 8.09 | CC(=O)Nc1cccc(-c2cc(C(N)=O)c(C)[nH]2)c1 [Example 5, 5-[3-(acetylamino)phenyl]-2-methyl-1H-pyrrole-3-carboxamide]
 | 10.4 | COc1cccc(-c2cccc(-c3cc(C(N)=O)c(C)[nH]3)c2)c1 [Example 151, 5-(3′-methoxybiphenyl-3-yl)-2-methyl-1H-pyrrole-3-carboxamide]
5.01 | 3.16 | Cc1[nH]c(-c2cccc(NS(C)(=O)=O)c2)cc1C(N)=O [Example 6, 2-methyl-5-{3-[(methylsulfonyl)amino]phenyl}-1H-pyrrole-3-carboxamide]
7.49 | 0.595 | CCOC(=O)Cc1ccc(OCc2ccccc2)c(-c2cc(C(N)=O)c(C)[nH]2)c1 [Example 165, ethyl [4-(benzyloxy)-3-(4-carbamoyl-5-methyl-1H-pyrrol-2-yl)phenyl]acetate]
21.5 | 3.19 | CCOC(=O)CCN(Cc1ccccc1)C(=O)c1cc(-c2ccc(-c3c(C)noc3C)cc2)[nH]c1C [Example 96, ethyl N-benzyl-N-({5-[4-(3,5-dimethyl-1,2-oxazol-4-yl)phenyl]-2-methyl-1H-pyrrol-3-yl}carbonyl)-beta-alaninate]
4.49 | 11 | Cc1[nH]c(-c2ccc(-c3ccc(C(=O)N(C)C)cc3)cc2)cc1C(N)=O [Example 108, 5-[4′-(dimethylcarbamoyl)biphenyl-4-yl]-2-methyl-1H-pyrrole-3-carboxamide]
 | 4.41 | Cc1[nH]c(-c2ccccc2-n2ccc(=O)cc2)cc1C(N)=O [Example 120]
6.42 | 5.09 | COC(=O)CCNC(=O)c1cc(-c2ccc(-c3c(C)noc3C)cc2)[nH]c1C [Example 93, methyl N-({5-[4-(3,5-dimethyl-1,2-oxazol-4-yl)phenyl]-2-methyl-1H-pyrrol-3-yl}carbonyl)-beta-alaninate]
 | 8.48 | Cc1[nH]c(-c2ccccc2NS(=O)(=O)c2ccc(O)cc2)cc1C(N)=O [Example 88, 5-(2-{[(4-hydroxyphenyl)sulfonyl]amino}phenyl)-2-methyl-1H-pyrrole-3-carboxamide]
 | 6.7 | Cc1[nH]c(-c2ccccc2NCc2cccc(NC(=O)OC(C)(C)C)c2)cc1C(N)=O [Example 51, tert-butyl [3-({[2-(4-carbamoyl-5-methyl-1H-pyrrol-2-yl)phenyl]amino}methyl)phenyl]carbamate]
 | 5.04 | Cc1[nH]c(-c2ccccc2NCc2ccc(NC(=O)OC(C)(C)C)cc2)cc1C(N)=O [Example 50, tert-butyl [4-({[2-(4-carbamoyl-5-methyl-1H-pyrrol-2-yl)phenyl]amino}methyl)phenyl]carbamate]
 | 9.29 | Cc1[nH]c(-c2ccccc2NS(=O)(=O)c2ccc(Cl)cc2)cc1C(N)=O [Example 81, 5-(2-{[(4-chlorophenyl)sulfonyl]amino}phenyl)-2-methyl-1H-pyrrole-3-carboxamide]
 | 10.9 | Cc1[nH]c(-c2ccccc2Oc2ccc(S(C)(=O)=O)cc2)cc1C(N)=O [Example 132, 2-methyl-5-{2-[4-(methylsulfonyl)phenoxy]phenyl}-1H-pyrrole-3-carboxamide]
 | 7.41 | Cc1[nH]c(-c2cccc(/C=C/c3ccccc3)c2)cc1C(N)=O [Example 157, 2-methyl-5-{3-[(E)-2-phenylethenyl]phenyl}-1H-pyrrole-3-carboxamide]
